In patent publication US20230114728A1 (Venatorx Pharmaceuticals, Inc., priority 2019, published 2023):
Converted amounts (≈) assume the structure as drawn. Like-named read-outs stand apart in the source and are kept apart here.

How the values were obtained:
Assay type in all cases: cell-based
[1] = tested on: N. gonorrhoeae ATCC 49226; experiment: Liquid broth MIC in Fastidious broth; details: Neisseria gonorrhoeae, ATCC49226, Fastidious broth
Procedure, shortened: (§1)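 Colonies were swabbed from chocolate agar after 24 h growth and standardised by optical density at 600 nm. Compounds were serially diluted twofold in Fastidious broth, and bacteria added to give 5×10^5 CFU/mL. After about 24 h at 36 °C in 5% CO2, the lowest concentration allowing under 10% growth was taken as MIC.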

N. gonorrhoeae FA1090 = experiment: Liquid broth MIC in Fastidious broth; details: Neisseria gonorrhoeae, Fastidious broth
Procedure, shortened: as §1

N. gonorrhoeae H041 = experiment: Liquid broth MIC in Fastidious broth; details: Neisseria gonorrhoeae
Procedure, shortened: (§2)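 Broth microdilution in Fastidious broth with 2-fold compound series; inoculum from 24 h chocolate agar colonies, 5×10^5 CFU/mL start. Incubated ~24 hours at 36° C, 5% CO2. MIC read visually as lowest concentration giving <10% growth versus full-growth wells; strains carry mosaic PBP2.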

N. gonorrhoeae WHO G = experiment: Liquid broth MIC in Fastidious broth; details: Neisseria gonorrhoeae, Fastidious broth
Procedure, shortened: as §1

N. gonorrhoeae WHO K = experiment: Liquid broth MIC in Fastidious broth; details: Neisseria gonorrhoeae
Procedure, shortened: as §2

N. gonorrhoeae WHO L = experiment: Liquid broth MIC in Fastidious broth; details: Neisseria gonorrhoeae, Fastidious broth
Procedure, shortened: as §1

A. baumannii ATCC 19606 = experiment: Broth microdilution MIC in CAMHB; details: Acinetobacter baumannii, ATCC19606; MHB; read-out: Minimum Inhibitory Concentration, A. baumannii ATCC 19606
Procedure, shortened: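 CLSI broth microdilution in CAMHB: 2-fold compound dilutions inoculated at 2-8×10^5 CFU/mL from 3-5 h log-phase cultures. Incubated at 37 °C for 16-20 h (Enterobacteriaceae, Pseudomonas); MIC read visually as lowest concentration without growth. Strains include hyper-permeable and efflux-deficient mutants.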

E. coli 901C = experiment: Broth microdilution MIC in CAMHB; details: Escherichia coli; E. coli 901C (hyper-permeable); MHB; read-out: Minimum Inhibitory Concentration, E. coli 901C
Procedure, shortened: (§3)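 Per CLSI broth microdilution, colonies were grown 3-5 h at 37° C in cation-adjusted Mueller Hinton broth, then diluted to a starting inoculum of 2-8×10^5 CFU/mL against 2-fold serial compound dilutions. Plates were incubated 16-20 h at 37° C, and MIC was read visually as the lowest concentration with no growth.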

[2] = tested on: K. pneumoniae UMM producing SHV-5 and KPC-2; experiment: Broth microdilution MIC in CAMHB; details: Klebsiella pneumoniae, read-out: Minimum Inhibitory Concentration, K. pneumoniae UMM
Procedure, shortened: as §3

[3] = tested on: P. aeruginosa (ΔmexAB-oprM); experiment: Broth microdilution MIC in CAMHB; details: Pseudomonas aeruginosa, read-out: Minimum Inhibitory Concentration, P. aeruginosa ΔmexAB-OprM
Procedure, shortened: as §3

N. gonorrhoeae WHO Q = experiment: Liquid broth MIC in Fastidious broth; details: Neisseria gonorrhoeae
Procedure, shortened: as §2

N. gonorrhoeae WHO Z = experiment: Liquid broth MIC in Fastidious broth; details: Neisseria gonorrhoeae
Procedure, shortened: as §2

[4] = N. gonorrhoeae strain ATCC 49226, read-out: Minimum Inhibitory Concentration, N. gonorrhoeae ATCC 49226
[5] = N. gonorrhoeae strain FA1090, read-out: Minimum Inhibitory Concentration, N. gonorrhoeae FA1090
[6] = H041, read-out: Minimum Inhibitory Concentration, N. gonorrhoeae H041
[7] = N. gonorrhoeae strain WHO G, read-out: Minimum Inhibitory Concentration, N. gonorrhoeae WHO G
[8] = read-out: Minimum Inhibitory Concentration, N. gonorrhoeae WHO K
[9] = N. gonorrhoeae strain WHO L, read-out: Minimum Inhibitory Concentration, N. gonorrhoeae WHO L
[10] = read-out: Minimum Inhibitory Concentration, N. gonorrhoeae WHO Q
[11] = read-out: Minimum Inhibitory Concentration, N. gonorrhoeae WHO Z
[12] = N. gonorrhoeae ATCC 49226, read-out: Minimum Inhibitory Concentration, ATCC 49226
[13] = N. gonorrhoeae FA1090, read-out: Minimum Inhibitory Concentration, FA1090
[14] = H041, read-out: Minimum Inhibitory Concentration, H041
[15] = N. gonorrhoeae WHO G, read-out: Minimum Inhibitory Concentration, WHO G
[16] = read-out: Minimum Inhibitory Concentration, WHO K
[17] = N. gonorrhoeae WHO L, read-out: Minimum Inhibitory Concentration, WHO L
[18] = read-out: Minimum Inhibitory Concentration, WHO Q
[19] = read-out: Minimum Inhibitory Concentration, WHO Z

SMILES: Nc1nc(/C(=N/OC[C@H](NC(=O)c2ccc(O)c(O)c2Cl)C(=O)O)C(=O)N[C@H]2Cc3cccc(C(=O)O)c3OB2O)cs1 [Example 6, (R)-3-((Z)-2-(2-aminothiazol-4-yl)-2-(((S)-2-carboxy-2-(2-chloro-3,4-dihydroxybenzamido)ethoxy)imino)acetamido)-2-hydroxy-3,4-dihydro-2H-benzo[e][1,2]oxaborinine-8-carboxylic acid]
- MIC [1, 4]: > 64 µg/mL
- MIC (N. gonorrhoeae FA1090; [5]): 16 to 32 µg/mL (≈ 25.2 to 50.5 µM)
- MIC (N. gonorrhoeae H041; [6]): > 64 µg/mL
- MIC (N. gonorrhoeae WHO G; [7]): 16 to 32 µg/mL (≈ 25.2 to 50.5 µM)
- MIC (N. gonorrhoeae WHO K; [8]): > 64 µg/mL
- MIC (N. gonorrhoeae WHO L; [9]): > 64 µg/mL

SMILES: CCN1CCN(C(=O)NC(C(=O)N[C@H]2Cc3ccc(F)c(C(=O)O)c3OB2O)c2ncc(C(=O)O)cc2F)C(=O)C1=O (stereo partly drawn) [Example 33, 6-(2-(((R)-8-carboxy-7-fluoro-2-hydroxy-3,4-dihydro-2H-benzo[e][1,2]oxaborinin-3-yl)amino)-1-(4-ethyl-2,3-dioxopiperazine-1-carboxamido)-2-oxoethyl)-5-fluoronicotinic acid]
- MIC (A. baumannii ATCC 19606): > 128 µg/mL
- MIC (E. coli 901C): 2 to 4 µg/mL (≈ 3.39 to 6.79 µM)
- MIC [2]: > 128 µg/mL
- MIC [3]: 32 to 64 µg/mL (≈ 54.3 to 109 µM)
- MIC [1, 4]: 16 to 32 µg/mL (≈ 27.2 to 54.3 µM)
- MIC (N. gonorrhoeae FA1090; [5]): 4 to 8 µg/mL (≈ 6.79 to 13.6 µM)
- MIC (N. gonorrhoeae H041; [6]): > 64 µg/mL
- MIC (N. gonorrhoeae WHO G; [7]): 16 to 32 µg/mL (≈ 27.2 to 54.3 µM)
- MIC (N. gonorrhoeae WHO K; [8]): > 64 µg/mL
- MIC (N. gonorrhoeae WHO L; [9]): > 64 µg/mL

SMILES: NCCCN1CCN(C(=O)N[C@@H](C(=O)N[C@H]2Cc3cc(Cl)c(F)c(C(=O)O)c3OB2O)c2c(F)cc(O)c(O)c2Cl)C(=O)C1=O [Example 190, (R)-3-((R)-2-(4-(3-aminopropyl)-2,3-dioxopiperazine-1-carboxamido)-2-(2-chloro-6-fluoro-3,4-dihydroxyphenyl)acetamido)-6-chloro-7-fluoro-2-hydroxy-3,4-dihydro-2H-benzo[e][1,2]oxaborinine-8-carboxylic acid]
- MIC [1, 4]: > 64 µg/mL
- MIC (N. gonorrhoeae FA1090; [5]): 16 to 32 µg/mL (≈ 23.7 to 47.5 µM)
- MIC (N. gonorrhoeae H041; [6]): > 64 µg/mL
- MIC (N. gonorrhoeae WHO G; [7]): > 64 µg/mL
- MIC (N. gonorrhoeae WHO K; [8]): > 64 µg/mL
- MIC (N. gonorrhoeae WHO L; [9]): > 64 µg/mL
- MIC (N. gonorrhoeae WHO Q; [10]): > 64 µg/mL
- MIC (N. gonorrhoeae WHO Z; [11]): > 64 µg/mL

SMILES: CCN1CCN(C(=O)N[C@@H](C(=O)N[C@H]2Cc3cc(Cl)c(F)c(C(=O)O)c3OB2O)c2c(F)cc(O)c(O)c2Cl)C(=O)C1=O [Example 191, (R)-6-chloro-3-((R)-2-(2-chloro-6-fluoro-3,4-dihydroxyphenyl)-2-(4-ethyl-2,3-dioxopiperazine-1-carboxamido)acetamido)-7-fluoro-2-hydroxy-3,4-dihydro-2H-benzo[e][1,2]oxaborinine-8-carboxylic acid]
- MIC [1, 4]: > 64 µg/mL
- MIC (N. gonorrhoeae FA1090; [5]): 16 to 32 µg/mL (≈ 24.8 to 49.6 µM)
- MIC (N. gonorrhoeae H041; [6]): > 64 µg/mL
- MIC (N. gonorrhoeae WHO G; [7]): > 64 µg/mL
- MIC (N. gonorrhoeae WHO K; [8]): > 64 µg/mL
- MIC (N. gonorrhoeae WHO L; [9]): > 64 µg/mL
- MIC (N. gonorrhoeae WHO Q; [10]): > 64 µg/mL
- MIC (N. gonorrhoeae WHO Z; [11]): > 64 µg/mL

SMILES: CS(=O)(=O)N1CCN(C(=O)NC(C(=O)N[C@H]2Cc3ccc(F)c(C(=O)O)c3OB2O)c2c(Cl)cc(O)c(O)c2F)C1=O (stereo partly drawn) [Example 208, (3R)-3-(2-(6-chloro-2-fluoro-3,4-dihydroxyphenyl)-2-(3-(methylsulfonyl)-2-oxoimidazolidine-1-carboxamido)acetamido)-7-fluoro-2-hydroxy-3,4-dihydro-2H-benzo[e][1,2]oxaborinine-8-carboxylic acid]
- MIC [1, 12]: > 64 µg/mL
- MIC (N. gonorrhoeae FA1090; [13]): 4 to 8 µg/mL (≈ 6.32 to 12.6 µM)
- MIC (N. gonorrhoeae H041; [14]): > 64 µg/mL
- MIC (N. gonorrhoeae WHO G; [15]): 16 to 32 µg/mL (≈ 25.3 to 50.6 µM)
- MIC (N. gonorrhoeae WHO K; [16]): > 64 µg/mL
- MIC (N. gonorrhoeae WHO L; [17]): > 64 µg/mL
- MIC (N. gonorrhoeae WHO Q; [18]): > 64 µg/mL
- MIC (N. gonorrhoeae WHO Z; [19]): > 64 µg/mL

SMILES: CCN1CCN(C(=O)N[C@H](C(=O)N[C@H]2Cc3ccc(F)c(C(=O)O)c3OB2O)c2ccc(O)c(O)c2)C(=O)C1=O [Example 210, (R)-3-((S)-2-(3,4-dihydroxyphenyl)-2-(4-ethyl-2,3-dioxopiperazine-1-carboxamido)acetamido)-7-fluoro-2-hydroxy-3,4-dihydro-2H-benzo[e][1,2]oxaborinine-8-carboxylic acid]
- MIC [1, 12]: > 64 µg/mL
- MIC (N. gonorrhoeae FA1090; [13]): > 64 µg/mL
- MIC (N. gonorrhoeae H041; [14]): > 64 µg/mL
- MIC (N. gonorrhoeae WHO G; [15]): > 64 µg/mL
- MIC (N. gonorrhoeae WHO K; [16]): > 64 µg/mL
- MIC (N. gonorrhoeae WHO L; [17]): > 64 µg/mL
- MIC (N. gonorrhoeae WHO Q; [18]): > 64 µg/mL
- MIC (N. gonorrhoeae WHO Z; [19]): > 64 µg/mL
